Experimental findings from patent publication US10421718B2, “EBNA1 inhibitors and their method of use” (priority 2013, dated 2019) are described below.

What is called IC50 is the midpoint of a concentration-inhibition curve. Lower therefore signals higher potency.

The target in the assay is T1, His-EBNA1 (DNA binding domain of EBNA1, amino acids 459-607) (Epstein-Barr virus, UniProt P03211).
T1 construct: made in house; host or cells: E. coli
T1 sequence (P03211 459-607): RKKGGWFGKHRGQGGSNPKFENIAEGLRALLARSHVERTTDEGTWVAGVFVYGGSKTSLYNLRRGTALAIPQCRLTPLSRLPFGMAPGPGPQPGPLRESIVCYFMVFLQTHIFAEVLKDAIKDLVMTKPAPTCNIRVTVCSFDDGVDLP
In words: Inhibition of 5′-biotin-oPL4624 binding to His-EBNA1 using Alpha Screen technology. The conditions noted are these: Alpha Screen Activity (IC50, inhibition of 5′-biotin-oPL4624 binding to His-EBNA1), 15 nM His-EBNA1, 0.2 nM bt-oPL4624, 2 hr room temperature. How it is done: Inhibition of 5′-biotin-oPL4624 binding to His-EBNA1 using Alpha Screen technology: Assays were performed using the DNA binding domain of EBNA1 (amino acids 459-607), which was His-tagged (His-EBNA1) and the self-complementary biotinylated (bt) oligonucleotide with the sequence 5′-bt-[…]-ATGCTACCC-3′ (bt-oPL4624). The protein was expressed in E. coli and purified according to Barwell, et al. (Barwell J A, Bochkarev A, Pfuetzner R A, Tong H, Yang D S, Frappier L, Edwards A M. (1995) Overexpression, purification, and crystallization of the DNA binding and dimerization domains of the Epstein-Barr virus nuclear antigen 1. J Biol Chem. 270: 20556-9.). The bt-oPL4624 oligonucleotide was purchased from Integrated DNA Technologies, Inc (IDT). AlphaScreen donor, acceptor beads and white, opaque 384-well assay plates were purchased from PerkinElmer, Inc.
Assays contained 15 nM His-EBNA1, 0.2 nM bt-oPL4624, 5 μg/mL AlphaScreen streptavidin donor beads and nickel chelate acceptor beads, and a series of concentrations of test compound ranging from 3.2 nM to 100 μM in a total volume of 40 μL assay buffer (25 mM Tris, pH 7.2, 160 mM NaCl, 1 mM MgCl2). His-EBNA1 (30 nM) and bt-oPL4624 (0.4 nM) were preincubated with 10 μg/mL nickel chelate AlphaScreen acceptor bead, or 10 μg/mL streptavidin AlphaScreen donor bead, respectively, for 30 minutes at room temperature in assay buffer. Twenty microliters of His-EBNA1/acceptor bead mix and bt-oPL4624/donor bead mix were transferred to assay plates containing […] of 1:3 serial dilutions of test compounds previously prepared in DMSO at concentrations ranging from 0.32 μM to 10 mM. Nonspecific binding was determined with 5 μg/mL AlphaScreen acceptor bead in the absence of His-EBNA1. After 2 hr incubation at room temperature, the AlphaScreen signal was measured on the Envision plate reader (PerkinElmer, Inc.) at 680 nm excitation and 570 nm emission. Inhibition values at each concentration of test compound were determined by setting 100% equal to raw data values in the absence of EBNA1 and 0% equal to the raw data values in the presence of EBNA1. Nonlinear regression fits of the inhibition values to a one-site dose-response equation were performed using GraphPad Prism.
`O=C(O)c1cccc(C#Cc2ccccc2CO)c1-n1cccc1` [Entry 19, 3-{2-[2-(hydroxymethyl)phenyl]ethynyl}-2-(1H-pyrrol-1-yl)benzoic acid] had an IC50 of under 1 µM. In the case of `O=C(O)c1cccc(C#Cc2ccc(CO)cc2)c1-n1cccc1` [Entry 20, 3-{2-[4-(hydroxymethyl)phenyl]ethynyl}-2-(1H-pyrrol-1-yl)benzoic acid] it was under 1 µM; in that of `Cc1ccc(C#Cc2cccc(C(=O)O)c2-n2c(C)ccc2C)cc1` [Entry 21, 2-(2,5-dimethyl-1H-pyrrol-1-yl)-3-[2-(4-methylphenyl)ethynyl]benzoic acid], under 1 µM.

On to `Cc1ccc(C)n1-c1c(C#Cc2cccc(O)c2)cccc1C(=O)O` [Entry 22, 2-(2,5-dimethyl-1H-pyrrol-1-yl)-3-[2-(3-hydroxyphenyl)ethynyl]benzoic acid], for which the IC50 was under 1 µM. In the case of `O=C(O)c1cccc(C#Cc2ccc3c(c2)NCC3)c1-n1cccc1` [Entry 23, 3-[2-(2,3-dihydro-1H-indol-6-yl)ethynyl]-2-(1H-pyrrol-1-yl)benzoic acid] it was under 1 µM; in that of `Cn1cc(C#Cc2cccc(C(=O)O)c2-n2cccc2)cn1` [Entry 24, 3-[2-(1-methyl-1H-pyrazol-4-yl)ethynyl]-2-(1H-pyrrol-1-yl)benzoic acid], 1 to 10 µM.

On to `Cc1nc(C#Cc2cccc(C(=O)O)c2-n2cccc2)cn1C` [Entry 25, 3-[2-(1,2-dimethyl-1H-imidazol-4-yl)ethynyl]-2-(1H-pyrrol-1-yl)benzoic acid], for which the IC50 is 10 to 100 µM.

`Cn1cncc1C#Cc1cccc(C(=O)O)c1-n1cccc1` [Entry 26, 3-[2-(1-methyl-1H-imidazol-5-yl)ethynyl]-2-(1H-pyrrol-1-yl)benzoic acid] registered an IC50 of 10 to 100 µM. For `Cn1ccnc1C#Cc1cccc(C(=O)O)c1-n1cccc1` [Entry 27, 3-[2-(1-methyl-1H-imidazol-2-yl)ethynyl]-2-(1H-pyrrol-1-yl)benzoic acid] the value was 10 to 100 µM; for `O=C(O)c1cccc(C#Cc2cncs2)c1-n1cccc1` [Entry 28, 2-(1H-pyrrol-1-yl)-3-[2-(1,3-thiazol-5-yl)ethynyl]benzoic acid], 10 to 100 µM.

`O=C(O)c1cccc(C#Cc2cscn2)c1-n1cccc1` [Entry 29, 2-(1H-pyrrol-1-yl)-3-[2-(1,3-thiazol-4-yl)ethynyl]benzoic acid] yielded an IC50 of under 1 µM.

As for `O=C(O)c1cccc(C#Cc2ccc3cc[nH]c3n2)c1-n1cccc1` [Entry 30, 2-(1H-pyrrol-1-yl)-3-(2-{1H-pyrrolo[2,3-b]pyridin-6-yl}ethynyl)benzoic acid], the IC50 is 1 to 10 µM. `CC(C)(O)c1cccc(C#Cc2cccc(C(=O)O)c2-n2cccc2)c1` [Entry 31, 3-{2-[3-(2-hydroxypropan-2-yl)phenyl]ethynyl}-2-(1H-pyrrol-1-yl)benzoic acid] yielded an IC50 of 1 to 10 µM. In the case of `CC(C)C(O)C#Cc1cccc(C(=O)O)c1-n1cccc1` (stereo not drawn) [Entry 32, 3-(3-hydroxy-4-methylpent-1-yn-1-yl)-2-(1H-pyrrol-1-yl)benzoic acid] it was 1 to 10 µM; in that of `O=C(O)c1cccc(C#CC(O)c2ccccc2)c1-n1cccc1` (stereo not drawn) [Entry 33, 3-(3-hydroxy-3-phenylprop-1-yn-1-yl)-2-(1H-pyrrol-1-yl)benzoic acid], under 1 µM; in that of `O=C(O)c1cccc(C#Cc2c[nH]c3ncccc23)c1-n1cccc1` [Entry 34, 2-(1H-pyrrol-1-yl)-3-(2-{1H-pyrrolo[2,3-b]pyridin-3-yl}ethynyl)benzoic acid], under 1 µM.

For the molecule `O=C(O)c1cccc(C#Cc2cccc3[nH]ccc23)c1-n1cccc1` [Entry 35, 3-[2-(1H-indol-4-yl)ethynyl]-2-(1H-pyrrol-1-yl)benzoic acid], the IC50 is under 1 µM. In turn, `O=C(O)c1cccc(C#Cc2ccn3ncnc3c2)c1-n1cccc1` [Entry 36, 2-(1H-pyrrol-1-yl)-3-(2-{[1,2,4]triazolo[1,5-a]pyridin-7-yl}ethynyl)benzoic acid] registered an IC50 of under 1 µM. In the case of `CN(C)S(=O)(=O)c1cccc(C#Cc2cccc(C(=O)O)c2-n2cccc2)c1` [Entry 37, 3-{2-[3-(dimethylsulfamoyl)phenyl]ethynyl}-2-(1H-pyrrol-1-yl)benzoic acid] it was under 1 µM; in that of `O=C(O)c1cccc(C#Cc2cc(O)cc(F)c2)c1-n1cccc1` [Entry 38, 3-[2-(3-fluoro-5-hydroxyphenyl)ethynyl]-2-(1H-pyrrol-1-yl)benzoic acid], under 1 µM.

In turn, `O=C(O)c1cccc(C#Cc2cccc(CO)c2)c1-n1cccc1` [Entry 39, 3-{2-[3-(hydroxymethyl)phenyl]ethynyl}-2-(1H-pyrrol-1-yl)benzoic acid] came in with an IC50 of under 1 µM.

Regarding `O=C(O)c1cccc(C#Cc2cncc(O)c2)c1-n1cccc1` [Entry 40, 3-[2-(5-hydroxypyridin-3-yl)ethynyl]-2-(1H-pyrrol-1-yl)benzoic acid], the IC50 is 10 to 100 µM. In the case of `O=C(O)c1cccc(C#Cc2ccc3[nH]cnc3c2)c1-n1cccc1` [Entry 41] it was 1 to 10 µM; in that of `O=C(O)c1cccc(C#Cc2ccc3[nH]ccc3c2)c1-n1cccc1` [Entry 42, 3-[2-(1H-indol-5-yl)ethynyl]-2-(1H-pyrrol-1-yl)benzoic acid], 1 to 10 µM. In the case of `O=C(O)c1cccc(C#Cc2ccc3cc[nH]c3c2)c1-n1cccc1` [Entry 43, 3-[2-(1H-indol-6-yl)ethynyl]-2-(1H-pyrrol-1-yl)benzoic acid] it was under 1 µM; in that of `Cc1ccc(C#Cc2cccc(C(=O)O)c2-n2cccc2)cc1` [Entry 44, 3-[2-(4-methylphenyl)ethynyl]-2-(1H-pyrrol-1-yl)benzoic acid], under 1 µM; in that of `O=C(O)c1cccc(C#Cc2cc(F)cc(F)c2)c1-n1cccc1` [Entry 45, 3-[2-(3,5-difluorophenyl)ethynyl]-2-(1H-pyrrol-1-yl)benzoic acid], 1 to 10 µM.

On to `O=C(O)c1cccc(C#Cc2cccc(OC(F)F)c2)c1-n1cccc1` [Entry 46, 3-{2-[3-(difluoromethoxy)phenyl]ethynyl}-2-(1H-pyrrol-1-yl)benzoic acid], for which the IC50 is 1 to 10 µM. For `C#Cc1cccc(C(=O)O)c1-n1cccc1` [Entry 47, 3-ethynyl-2-(1H-pyrrol-1-yl)benzoic acid] the value was 10 to 100 µM; for `CC(C)(N)C#Cc1cccc(C(=O)O)c1-n1cccc1` [Entry 48, 3-(3-amino-3-methylbut-1-yn-1-yl)-2-(1H-pyrrol-1-yl)benzoic acid], 100 to 1000 µM; for `CC(C)(C)C#Cc1cccc(C(=O)O)c1-n1cccc1` [Entry 49, 3-(3,3-dimethylbut-1-yn-1-yl)-2-(1H-pyrrol-1-yl)benzoic acid], 1 to 10 µM. Molecule `Cc1ccc(C)n1-c1c(C#Cc2ccccc2)cccc1C(=O)O` [Entry 50, 2-(2,5-dimethyl-1H-pyrrol-1-yl)-3-(2-phenylethynyl)benzoic acid] yielded an IC50 of under 1 µM. Molecule `O=C(O)c1cncc(C#Cc2ccc(F)cc2)c1-n1cccc1` [Entry 51] yielded an IC50 of 1 to 10 µM. In the case of `O=C(O)c1cncc(C#Cc2ccccc2)c1-n1cccc1` [Entry 52, 5-(2-phenylethynyl)-4-(1H-pyrrol-1-yl)pyridine-3-carboxylic acid] it was 10 to 100 µM. `NC1(C#Cc2cccc(C(=O)O)c2-n2cccc2)CCCCC1` [Entry 53, 3-[2-(1-aminocyclohexyl)ethynyl]-2-(1H-pyrrol-1-yl)benzoic acid trifluoroacetic acid] had an IC50 of under 1 µM. In the case of `O=C(O)c1cccc(C#CC2(O)CCCCC2)c1-n1cccc1` [Entry 54, 3-[2-(1-hydroxycyclohexyl)ethynyl]-2-(1H-pyrrol-1-yl)benzoic acid] it was 1 to 10 µM.

For `CCCCC(CC)C(O)C#Cc1cccc(C(=O)O)c1-n1cccc1` (stereo not drawn) [Entry 55, 3-(4-ethyl-3-hydroxyoct-1-yn-1-yl)-2-(1H-pyrrol-1-yl)benzoic acid], the IC50 was under 1 µM. In the case of `O=C(O)c1cccc(C#Cc2cn3ccnc3cn2)c1-n1cccc1` [Entry 56, 3-(2-{imidazo[1,2-a]pyrazin-6-yl}ethynyl)-2-(1H-pyrrol-1-yl)benzoic acid] it was under 1 µM; in that of `O=C(O)c1cccc(C#Cc2cccc(O)c2)c1-n1cccc1` [Entry 57, 3-[2-(3-hydroxyphenyl)ethynyl]-2-(1H-pyrrol-1-yl)benzoic acid], under 1 µM.
